melting point [°C]	SMILES
201	CCCN(C)c1cc2c(cc1C(F)(F)F)NC(=O)CC(c1cccc(-c3cnccn3)c1)=N2 [Example 102, 7-(Methyl-propyl-amino)-4-(3-pyrazin-2-yl-phenyl)-8-trifluoromethyl-1,3-dihydro-benzo[b][1,4]diazepin-2-one]
195	CCc1cc(-c2cccc(C3=Nc4cc(C)c(Cl)cc4NC(=O)C3)c2)ccn1 [Example 153, 8-Chloro-4-[3-(2-ethyl-pyridin-4-yl)-phenyl]-7-methyl-1,3-dihydro-benzo[b][1,4]diazepin-2-one]
181	O=C1CC(c2cccc(-c3ccnc(C4CC4)c3)c2)=Nc2ccc(C(F)(F)F)cc2N1 [Example 346, 4-[3-(2-Cyclopropyl-pyridin-4-yl)-phenyl]-8-trifluoromethyl-1,3-dihydro-benzo[b][1,4]diazepin-2-one]
215 to 220	Cc1nccc(-c2cccc(C3=Nc4ccc(Cl)cc4NC(=O)C3)c2)n1 [Example 305, 8-Chloro-4-[3-(2-methyl-pyrimidin-4-yl)-phenyl]-1,3-dihydro-benzo[b][1,4]diazepin-2-one]
233 to 235	Cc1cc2c(cc1Cl)NC(=O)CC(c1ccnc(-c3ccncc3)c1)=N2 [Example 293, 4-[2,4′]Bipyridinyl-4-yl-8-chloro-7-methyl-1,3-dihydro-benzo[b][1,4]diazepin-2-one]
199 to 200	Cc1cc(-c2cccc(C3=Nc4ccc(Cl)cc4NC(=O)C3)c2)ncn1 [Example 312, 8-Chloro-4-[3-(6-methyl-pyrimidin-4-yl)-phenyl]-1,3-dihydro-benzo[b][1,4]diazepin-2-one]
145 to 160	CCc1cc(C)c(-c2cccc(C3=Nc4cc(OCC(F)(F)F)c(C(F)(F)F)cc4NC(=O)C3)c2)cn1 [Example 256, 4-[3-(6-Ethyl-4-methyl-pyridin-3-yl)-phenyl]-7-(2,2,2-trifluoro-ethoxy)-8-trifluoromethyl-1,3-dihydro-benzo[b][1,4]diazepin-2-one]
163	Cc1cc(-c2cccc(C3=Nc4cc(Cl)c(C(F)(F)F)cc4NC(=O)C3)c2)cc(CO)n1 [Example 403, 7-Chloro-4-[3-(2-hydroxymethyl-6-methyl-pyridin-4-yl)-phenyl]-8-trifluoromethyl-1,3-dihydro-benzo[b][1,4]diazepin-2-one]
215	Cc1cc(-c2cccc(C3=Nc4cc(N(C)CC(C)C)c(C(F)(F)F)cc4NC(=O)C3)c2)cc(C)n1 [Example 408, 4-[3-(2,6-Dimethyl-pyridin-4-yl)-phenyl]-7-(isobutyl-methyl-amino)-8-trifluoromethyl-1,3-dihydro-benzo[b][1,4]diazepin-2-one]
188	Cc1cc2c(cc1C(F)(F)F)NC(=O)CC(c1cccc(-c3ccnc(CN(C)CC(C)C)c3)c1)=N2 [Example 360, 4-(3-{2-[(Isobutyl-methyl-amino)-methyl]-pyridin-4-yl}-phenyl)-7-methyl-8-trifluoromethyl-1,3-dihydro-benzo[b][1,4]diazepin-2-one]
214	CCOc1cc2c(cc1C(F)(F)F)NC(=O)CC(c1cccc(-c3cccnc3CC)c1)=N2 [Example 235, 7-Ethoxy-4-[3-(2-ethyl-pyridin-3-yl)-phenyl]-8-trifluoromethyl-1,3-dihydro-benzo[b][1,4]diazepin-2-one]
236 to 238	COCCNc1nc(C)cc(-c2cccc(C3=Nc4cc(C)c(C(F)(F)F)cc4NC(=O)C3)c2)n1 [Example 324, 4-{3-[2-(2-Methoxy-ethylamino)-6-methyl-pyrimidin-4-yl]-phenyl}-7-methyl-8-trifluoromethyl-1,3-dihydro-benzo[b][1,4]diazepin-2-one]
209	Cc1cc(-c2cccc(C3=Nc4cc(C(F)(F)F)c(C(F)(F)F)cc4NC(=O)C3)c2)ccn1 [Example 414, 4-[3-(2-Methyl-pyridin-4-yl)-phenyl]-7,8-bis-trifluoromethyl-1,3-dihydro-benzo[b][1,4]diazepin-2-one]
204	CN(C)c1cc2c(cc1C(F)(F)F)NC(=O)CC(c1cccc(-c3cnccn3)c1)=N2 [Example 90, 7-Dimethylamino-4-(3-pyrazin-2-yl-phenyl)-8-trifluoromethyl-1,3-dihydro-benzo[b][1,4]diazepin-2-one]
214	Cc1cc(-c2cccc(C3=Nc4cc(Cl)c(C(F)(F)F)cc4NC(=O)C3)c2)c(C)cn1 [Example 136, 7-Chloro-4-[3-(2,5-dimethyl-pyridin-4-yl)-phenyl]-8-trifluoromethyl-1,3-dihydro benzo[b][1,4]diazepin-2-one]
222 to 224	COCCNc1nc(C)cc(-c2cccc(C3=Nc4cc(C)c(Cl)cc4NC(=O)C3)c2)n1 [Example 325, 8-Chloro-4-{3-[2-(2-methoxy-ethylamino)-6-methyl-pyrimidin-4-yl]-phenyl}-7-methyl-1,3-dihydro-benzo[b][1,4]diazepin-2-one]
226 to 228	CCOc1cc2c(cc1C(F)(F)F)NC(=O)CC(c1cccc(-c3cnc(C)cc3C)c1)=N2 [Example 252, 4-[3-(4,6-Dimethyl-pyridin-3-yl)-phenyl]-7-ethoxy-8-trifluoromethyl-1,3-dihydro-benzo[b][1,4]diazepin-2-one]

melting point [°C]	SMILES
218 to 219	CCOc1cc2c(cc1C(F)(F)F)NC(=O)CC(c1cccc(-c3ccc(CC)nc3)c1)=N2 [Example 190, 7-Ethoxy-4-[3-(6-ethyl-pyridin-3-yl)-phenyl]-8-trifluoromethyl-1,3-dihydro-benzo[b][1,4]diazepin-2-one]
200	CC(C)c1cc(-c2cccc(C3=Nc4cc(Cl)c(C(F)(F)F)cc4NC(=O)C3)c2)ccn1 [Example 273, 7-Chloro-4-[3-(2-isopropyl-pyridin-4-yl)-phenyl]-8-trifluoromethyl-1,3-dihydro benzo[b][1,4]diazepin-2-one]
225	COCc1cc(-c2cccc(C3=Nc4cc(C)c(C(F)(F)F)cc4NC(=O)C3)c2)ccn1 [Example 361, 4-[3-(2-Methoxymethyl-pyridin-4-yl)-phenyl]-7-methyl-8-trifluoromethyl-1,3-dihydro-benzo[b][1,4]diazepin-2-one]
229	Cc1cc2c(cc1Cl)NC(=O)CC(c1cccc(-c3cccnc3)c1)=N2 [Example 26, 8-Chloro-7-methyl-4-(3-pyridin-3-yl-phenyl)-1,3-dihydro-benzo[b][1,4]diazepin-2-one]
249	O=C1CC(c2cccc(-c3ccccn3)c2)=Nc2ccc(C#Cc3ccc(F)cc3)cc2N1 [Example 165, 8-(4-Fluoro-phenylethynyl)-4-(3-pyridin-2-yl-phenyl)-1,3-dihydro-benzo[b][1,4]diazepin-2-one]
171 to 173	O=C1CC(c2cccc(-c3cccnc3C3CC3)c2)=Nc2ccc(C(F)(F)F)cc2N1 [Example 220, 4-[3-(2-Cyclopropyl-pyridin-3-yl)-phenyl]-8-trifluoromethyl-1,3-dihydro-benzo[b][1,4]diazepin-2-one]
169	CCc1cnc(C)cc1-c1cccc(C2=Nc3cc(OCC(F)(F)F)c(C(F)(F)F)cc3NC(=O)C2)c1 [Example 151, 4-[3-(5-ethyl-2-methyl-pyridin-4-yl)-phenyl]-7-(2,2,2-trifluoro-ethoxy)-8-trifluoromethyl-1,3-dihydro-benzo[b][1,4]diazepin-2-one]
211 to 213	COCCNc1cc(-c2cccc(C3=Nc4cc(C)c(Cl)cc4NC(=O)C3)c2)ncn1 [Example 334, 8-Chloro-4-{3-[6-(2-methoxy-ethylamino)-pyrimidin-4-yl]-phenyl}-7-methyl-1,3-dihydro-benzo[b][1,4]diazepin-2-one]
162	CCCc1cc2c(cc1C(F)(F)F)NC(=O)CC(c1cccc(-c3cccnc3)c1)=N2 [Example 230, 7-Propyl-4-(3-pyridin-3-yl-phenyl)-8-trifluoromethyl-1,3-dihydro-benzo[b][1,4]diazepin-2-one]
215 to 216	Cc1ncccc1-c1cccc(C2=Nc3ccc(-n4cccc4)cc3NC(=O)C2)c1 [Example 289, 4-[3-(2-Methyl-pyridin-3-yl)-phenyl]-8-pyrrol-1-yl-1,3-dihydro-benzo[b][1,4]diazepin-2-one]
223	CN(C)c1cc2c(cc1C(F)(F)F)NC(=O)CC(c1cccc(-c3ccnc(CO)c3)c1)=N2 [Example 371, 7-Dimethylamino-4-[3-(2-hydroxymethyl-pyridin-4-yl)-phenyl]-8-trifluoromethyl-1,3-dihydro-benzo[b][1,4]diazepin-2-one]
215	Cc1cc(-c2cccc(C3=Nc4ccc(Cl)cc4NC(=O)C3)c2)ccn1 [Example 74, 8-Chloro-4-[3-(2-methyl-pyridin-4-yl)-phenyl]-1,3-dihydro-benzo[b][1,4]diazepin-2-one]
268	O=C1CC(c2cccc(-c3cnccn3)c2)=Nc2cc(Cl)c(Cl)cc2N1 [Example 88, 7,8-Dichloro-4-(3-pyrazin-2-yl-phenyl)-1,3-dihydro-benzo[b][1,4]diazepin-2-one]
166	CC(C)CN(C)Cc1cc(-c2cccc(C3=Nc4cc(OCC(F)(F)F)c(C(F)(F)F)cc4NC(=O)C3)c2)ccn1 [Example 397, 4-(3-{2-[(Isobutyl-methyl-amino)-methyl]-pyridin-4-yl}-phenyl)-7-(2,2,2-trifluoro-ethoxy)-8-trifluoromethyl-1,3-dihydro-benzo[b][1,4]diazepin-2-one]
226 to 227	Cc1cc(-c2cccc(C3=Nc4cc(C)c(Cl)cc4NC(=O)C3)c2)ncn1 [Example 309, 8-Chloro-7-methyl-4-[3-(6-methyl-pyrimidin-4-yl)-phenyl]-1,3-dihydro-benzo[b][1,4]diazepin-2-one]
218 to 219	Cc1cc2c(cc1C(F)(F)F)NC(=O)CC(c1cccc(-c3ccnc(C4CCCC4)c3)c1)=N2 [Example 351, 4-[3-(2-Cyclopentyl-pyridin-4-yl)-phenyl]-7-methyl-8-trifluoromethyl-1,3-dihydro-benzo[b][1,4]diazepin-2-one]
210 to 217	CCc1cc2c(cc1C(F)(F)F)NC(=O)CC(c1cccc(-c3ccnc(C#N)c3)c1)=N2 [Example 210, 4-[3-(8-Ethyl-4-oxo-7-trifluoromethyl-4,5-dihydro-3H-benzo[b][1,4]diazepin-2-yl)-phenyl]-pyridine-2-carbonitrile]
